Measurements published in US9521846B2, “Template-fixed peptidomimetics with antimicrobial activity” (priority 2006, dated 2016).
Values after ≈ are worked out from the molar mass of the structure shown. Non-standard residues stand in square brackets, D forms with d. Residues, ends and D or L forms follow the SMILES beside them. Cha = N[C@@H](CC1CCCCC1)C(=O)O; Chg = N[C@H](C(=O)O)C1CCCCC1; Nle = CCCC[C@H](N)C(=O)O; Dab = NCC[C@H](N)C(=O)O

What was measured:
[1] = test system: Pseudomonas aeruginosa P1021903; assay type: cell-based; settings: P1021903
Experimental: (§1) The selective antimicrobial activities of the peptides were determined in 96-well plates (Nunclon polystyrene) by the standard NCCLS broth microdilution method (see ref 1, below) with slight modifications. Innocula of the microorganisms were diluted into Mueller-Hinton (MH) broth+0.02% BSA and compared with a 0.5 Mcfarland standard to give appr. 10^6 colony forming units (CFU)/ml. Aliquots (50 μl) of inoculate were added to 50 μl of MH broth+0.02% BSA containing the peptide in serial two-fold dilutions. The following microorganisms were used to determine antibiotic selectivity of the peptides: Escherichia coli (ATCC 25922), Pseudomonas aeruginosa (P. aeruginosa ATCC 27853, P8191900, P1021903, P1021913, IMP 1 Livermore 3140).

[2] = test system: Pseudomonas aeruginosa P8191900; assay type: cell-based; settings: P8191900
Experimental: as §1

[3] = test system: Pseudomonas aeruginosa P1021913; assay type: cell-based; settings: P1021913
Experimental: as §1

[4] = test system: Pseudomonas aeruginosa IMP 1 Livermore 3140; assay type: cell-based; settings: IMP 1 Livermore 3140
Experimental: as §1

P. aeruginosa ATCC 27853 = assay type: cell-based, Pseudomonas aeruginosa; settings: ATCC 27853
Experimental: as §1

[5] = test system: human red blood cells (hRBC); assay: Hemolysis; assay type: cell-based; settings: 100
Experimental: Hemolysis of red blood cells is often employed for assessment of toxicity of related compounds such as protegrin or tachyplesin. Values are given as %-lysis of red blood cells observed at a concentration of 100 μg/ml. Typical values determined for cationic peptides such as protegrin and tachyplesin range between 30-40% with average MIC-values of 1-5 μg/ml over a wide range of pathogens.
The peptides were tested for their hemolytic activity against human red blood cells (hRBC). Fresh hRBC were washed three times with phosphate buffered saline (PBS) by centrifugation for 10 min at 2000×g. Peptides at a concentration of 100 μM were incubated with 20% v/v hRBC for 1 hour at 37° C. The final erythrocyte concentration was approximately 0.9×10^9 cells per ml. A value of 0% and, respectively, 100% cell lysis was determined by incubation of the hRBC in the presence of PBS alone and, respectively, 0.1% Triton X-100 in H2O. The samples were centrifuged, the supernatant was 20-fold diluted in PBS buffer and the optical density (OD) of the sample at […] was measured. The 100% lysis value (OD540H20) gave an OD540 of approximately 1.3-1.8. Percent hemolysis was calculated as follows: (OD540peptide/OD540H20)×100%.

HELA cells (Acc57) = assay: Cytotoxicity assay, MTT reduction (LC 50, GI 50); assay type: cell-based
Experimental: The cytotoxicity of the peptides to HELA cells (Acc57) and COS-7 cells (CRL-1651) was determined using the MIT reduction assay [see ref. 2 and 3, below]. Briefly the method was as follows: HELA cells and COS-7 cells were seeded at 7.0×10^3 and, respectively, 4.5×10^3 cells per well and grown in 96-well […] plates for 24 hours at 37° C. at 5% CO2. At this point, time zero (Tz) was determined by MTT reduction (see below). The supernatant of the remaining wells was discarded, and fresh medium and the peptides in serial dilutions of 12.5, 25 and 50 μM were dispensed into the wells. Each peptide concentration was assayed in triplicate. Incubation of the cells was continued for 48 hours at 37° C. at 5% CO2. Wells were then washed once with phosphate buffered saline (PBS) and subsequently 100 μl MIT reagent (0.5 mg/ml in medium RPMI1640 and, respectively, DMEM) were added to the wells. This was incubated at 37° C. for 2 hours and subsequently the medium was aspirated and 100 μl isopropanol were added to each well. The absorbance at 595 nm of the solubilized product was measured (OD595peptide). For each concentration averages were calculated from triplicates. The percentage of growth was calculated as follows: (OD595peptide-OD595Tz-OD595Empty well)/(OD595Tz-OD595Empty well)×100% and was plotted for each peptide concentration.
The LC 50 values (Lethal Concentration, defined as the concentration that kills 50% of the cells) were determined for each peptide by using the trend line function of EXCEL (Microsoft Office 2000) for the concentrations (50, 25, 12.5 and 0 μM), the corresponding growth percentages and the value −50, (=TREND(C50:C0,%50:%0,−50)). The GI 50 (Growth Inhibition) concentrations were calculated for each peptide by using a trend line function for the concentrations (50, 25, 12.5 and 0 […]), the corresponding percentages and the value 50, (=TREND (C50:C0,%50:%0,50).

Structure (SMILES) | MIC P. aeruginosa P1021903 [1] | MIC P. aeruginosa P8191900 [2] | MIC P. aeruginosa P1021913 [3] | MIC P. aeruginosa IMP1 Livermore 3140 [4] | MIC P. aeruginosa ATCC 27853 (P. aeruginosa ATCC 27853) | Average MIC (P. aeruginosa) | Hemolysis at 100 μg/ml [5] | Cytotoxicity GI50 Hela cells (HELA cells (Acc57))
CC[C@H](C)[C@@H]1NC(=O)[C@H](Cc2c[nH]c3ccccc23)NC(=O)[C@H]([C@@H](C)O)NC(=O)[C@@H]2CCCN2C(=O)[C@H]2CCCN2C(=O)[C@H](CCN)NC(=O)[C@H](C)NC(=O)[C@H](CCN)NC(=O)[C@H](CCN)NC(=O)[C@H](Cc2c[nH]c3ccccc23)NC(=O)[C@H](Cc2c[nH]cn2)NC(=O)[C@H](CCN)NC(=O)[C@H](CCCCN)NC(=O)[C@H](CCN)NC1=O [Example 21] (cyclo(TWI[Dab]K[Dab]HW[Dab][Dab]A[Dab][dP]P)) | 0.21 µg/mL (≈ 0.13 µM) | 0.40 µg/mL (≈ 0.247 µM) | 0.31 µg/mL (≈ 0.192 µM) | 1.00 µg/mL (≈ 0.618 µM) | 0.09 µg/mL (≈ 0.0556 µM) | 0.40 µg/mL | 0.4% | 50 µM
CC[C@H](C)[C@@H]1NC(=O)[C@H](Cc2c[nH]c3ccccc23)NC(=O)[C@H](C)NC(=O)[C@@H]2CCCN2C(=O)[C@H]2CCCN2C(=O)[C@H](CCN)NC(=O)[C@H](C(C)C)NC(=O)[C@H](CCN)NC(=O)[C@H](CCN)NC(=O)[C@H](Cc2c[nH]c3ccccc23)NC(=O)[C@H](CCN)NC(=O)[C@H](CCN)NC(=O)[C@H](CCN)NC(=O)[C@H](CCN)NC1=O [Example 23] (cyclo(AWI[Dab][Dab][Dab][Dab]W[Dab][Dab]V[Dab][dP]P)) | 1.50 µg/mL (≈ 0.967 µM) | 1.00 µg/mL (≈ 0.645 µM) | 1.25 µg/mL (≈ 0.806 µM) | >2 µg/mL | 1.00 µg/mL (≈ 0.645 µM) | >1 µg/mL | 0.5% | 13 µM
CC[C@H](C)[C@@H]1NC(=O)[C@H](Cc2c[nH]c3ccccc23)NC(=O)[C@H]([C@@H](C)O)NC(=O)[C@@H]2CCCN2C(=O)[C@H]2CCCN2C(=O)[C@H](CCN)NC(=O)[C@H](C)NC(=O)[C@H](CCN)NC(=O)[C@H](CCN)NC(=O)[C@H](Cc2c[nH]c3ccccc23)NC(=O)[C@H](CCCCN)NC(=O)[C@H](CCN)NC(=O)[C@H](CCCCN)NC(=O)[C@H](CCN)NC1=O [Example 26] (cyclo(TWI[Dab]K[Dab]KW[Dab][Dab]A[Dab][dP]P)) | 0.13 µg/mL (≈ 0.0808 µM) | 0.30 µg/mL (≈ 0.186 µM) | 0.18 µg/mL (≈ 0.112 µM) | 0.40 µg/mL (≈ 0.249 µM) | 0.08 µg/mL (≈ 0.0497 µM) | 0.22 µg/mL | 0.8% | 50 µM
CC[C@H](C)[C@@H]1NC(=O)[C@H](Cc2c[nH]c3ccccc23)NC(=O)[C@H]([C@@H](C)O)NC(=O)[C@@H]2CCCN2C(=O)[C@H]2CCCN2C(=O)[C@H](CCN)NC(=O)[C@H](C)NC(=O)[C@H](CCN)NC(=O)[C@H](CCCCN)NC(=O)[C@H](Cc2c[nH]c3ccccc23)NC(=O)[C@H](CCN)NC(=O)[C@H](CCN)NC(=O)[C@H](CCCCN)NC(=O)[C@H](CCN)NC1=O [Example 27] (cyclo(TWI[Dab]K[Dab][Dab]WK[Dab]A[Dab][dP]P)) | 0.30 µg/mL (≈ 0.186 µM) | 0.30 µg/mL (≈ 0.186 µM) | 0.21 µg/mL (≈ 0.131 µM) | 0.50 µg/mL (≈ 0.311 µM) | 0.09 µg/mL (≈ 0.0559 µM) | 0.28 µg/mL | 0.6% | 50 µM
CC[C@H](C)[C@@H]1NC(=O)[C@H](Cc2c[nH]c3ccccc23)NC(=O)[C@H]([C@@H](C)O)NC(=O)[C@@H]2CCCN2C(=O)[C@H]2CCCN2C(=O)[C@H](CCN)NC(=O)[C@H](C(C)C)NC(=O)[C@H](CCN)NC(=O)[C@H](CCN)NC(=O)[C@H](Cc2c[nH]c3ccccc23)NC(=O)[C@H](CCN)NC(=O)[C@H](CCN)NC(=O)[C@H](CCCCN)NC(=O)[C@H](CCC(N)=O)NC1=O [Example 30] (cyclo(TWIQK[Dab][Dab]W[Dab][Dab]V[Dab][dP]P)) | 0.30 µg/mL (≈ 0.183 µM) | 0.13 µg/mL (≈ 0.0794 µM) | 0.50 µg/mL (≈ 0.305 µM) | 2.00 µg/mL (≈ 1.22 µM) | 0.09 µg/mL (≈ 0.055 µM) | 0.60 µg/mL | 0.5% | 46 µM

Now from value to compound, other results behind:

MIC P. aeruginosa P1021903 [1] | MIC P. aeruginosa P8191900 [2] | MIC P. aeruginosa P1021913 [3] | MIC P. aeruginosa IMP1 Livermore 3140 [4] | MIC P. aeruginosa ATCC 27853 (P. aeruginosa ATCC 27853) | Average MIC (P. aeruginosa) | Structure (SMILES) | Hemolysis at 100 μg/ml [5] | Cytotoxicity GI50 Hela cells (HELA cells (Acc57))
0.40 µg/mL (≈ 0.253 µM) | 0.16 µg/mL (≈ 0.101 µM) | 0.16 µg/mL (≈ 0.101 µM) | 0.24 µg/mL (≈ 0.152 µM) | 0.03 µg/mL (≈ 0.019 µM) | 0.20 µg/mL | CCCC[C@@H]1NC(=O)[C@H](Cc2c[nH]c3ccccc23)NC(=O)[C@H]([C@@H](C)O)NC(=O)[C@@H]2CCCN2C(=O)[C@H]2CCCN2C(=O)[C@H](CCN)NC(=O)[C@H](C)NC(=O)[C@H](CCN)NC(=O)[C@H](CCN)NC(=O)[C@H](Cc2c[nH]c3ccccc23)NC(=O)[C@H](CCN)NC(=O)[C@H](CCN)NC(=O)[C@H](CCCCN)NC(=O)[C@H](CCN)NC1=O [Example 31] (cyclo(TW[Nle][Dab]K[Dab][Dab]W[Dab][Dab]A[Dab][dP]P)) | 0.5% | 50 µM
0.29 µg/mL (≈ 0.18 µM) | 0.18 µg/mL (≈ 0.112 µM) | 0.31 µg/mL (≈ 0.193 µM) | 0.43 µg/mL (≈ 0.268 µM) | 0.05 µg/mL (≈ 0.0311 µM) | 0.25 µg/mL | C[C@@H]1NC(=O)[C@H](CCN)NC(=O)[C@H](CCN)NC(=O)[C@H](Cc2c[nH]c3ccccc23)NC(=O)[C@H](CCN)NC(=O)[C@H](CCN)NC(=O)[C@H](CCCCN)NC(=O)[C@H](CCN)NC(=O)[C@H](C2CCCCC2)NC(=O)[C@H](Cc2c[nH]c3ccccc23)NC(=O)[C@H]([C@@H](C)O)NC(=O)[C@@H]2CCCN2C(=O)[C@H]2CCCN2C(=O)[C@H](CCN)NC1=O [Example 33] (cyclo(TW[Chg][Dab]K[Dab][Dab]W[Dab][Dab]A[Dab][dP]P)) | 0.1% | 50 µM
0.29 µg/mL (≈ 0.179 µM) | 0.24 µg/mL (≈ 0.148 µM) | 0.48 µg/mL (≈ 0.296 µM) | 0.60 µg/mL (≈ 0.37 µM) | 0.05 µg/mL (≈ 0.0308 µM) | 0.33 µg/mL | C[C@@H]1NC(=O)[C@H](CCN)NC(=O)[C@H](CCN)NC(=O)[C@H](Cc2c[nH]c3ccccc23)NC(=O)[C@H](CCN)NC(=O)[C@H](CCN)NC(=O)[C@H](CCCCN)NC(=O)[C@H](CCN)NC(=O)[C@H](CC2CCCCC2)NC(=O)[C@H](Cc2c[nH]c3ccccc23)NC(=O)[C@H]([C@@H](C)O)NC(=O)[C@@H]2CCCN2C(=O)[C@H]2CCCN2C(=O)[C@H](CCN)NC1=O [Example 34] (cyclo(TW[Cha][Dab]K[Dab][Dab]W[Dab][Dab]A[Dab][dP]P)) | 0% | 50 µM
